Article PMC5762315, “Inhibition of polo-like kinase 4 (PLK4): a new therapeutic option for rhabdoid tumors and pediatric medulloblastoma” (Oncotarget, 2017)
Values joined by “and” are separate entries in the source; they are usually repeats but may differ in a detail not shown here. Equal entries are not always repeated.

Experiments:
[1] = test system: non-neoplastic human fibroblast cell line HFF-SCC058; assay: Flow cytometry cell cycle analysis (polyploidy), fibroblasts; type: cell-based; settings: 100nM
Description: Cell cycle evaluation was performed by staining the cells with PI (Thermo Fisher Scientific, USA) according to manufacturer’s instructions. […] Data was analyzed using Modfit LT from Verity Software House. Experiments were performed in triplicates.

DAOY MB cells = assay: Confluency assay (IncuCyte ZOOM), DAOY; type: cell-based, human; settings: increasing concentrations starting at 31.25nM, 48 hours, p-value=0.029
Description: For further evaluation of the effect of the PLK4 inhibitor over tumor cell proliferation, confluency was measured over a 48 hour period. MON, BT-12, G401 and DAOY cells were plated in 96-well plates with a density of 6 x 10^4 per well. […] Confluency was monitored for 48 hours by taking phase contrast images every 2 hours and measured using an IncuCyte ZOOM system (Essen BioScience, USA). Experiments were performed in triplicates.

RT and MB cell lines = assay: Clonogenic recovery assay; type: cell-based, human; settings: 6 days 100nM, then 12 days 0.1% DMSO
Description: For each cell line, 200 cells were seeded into 6-well tissue culture plates. […] On the 7th day, cell were washed with 1X PBS twice and then incubated with 0.1% DMSO for an additional 12 days. […] The number of colonies was counted. All experiments were performed in triplicates.

[2] = test system: MON, G401, BT-12, BT-16, DAOY and D283 cell lines; assay: Senescence beta-galactosidase assay; type: cell-based, human; settings: all cell lines (MON, G401, BT-12, BT-16, DAOY, D283); 100nM, 48 hours
Description: For each cell line, cells were seeded in 6-well plates in triplicates with 100,000 cells per well. Treatment medium was added the next day and incubated for 48 or 72 hrs. After incubation, cells were washed twice with 1X PBS and 1mL of the Fixation Buffer from the kit was added to each well of the plate and incubated at RT for 5 min. Cells were washed with 1X PBS and 1mL of staining solution from the kit was added to each well and incubated at 37°C without CO2 overnight. The next day, the cells were washed with 1X PBS and the numbers of blue stained cells (which indicate senescent cells) and unstained cells were counted in image J (www.imagej.nih.gov). The percentage of senescent cells was calculated.

[3] = test system: non-neoplastic human fibroblast cells (HFF-SCC058); assay: Immunofluorescence for gamma-tubulin (centriole number), fibroblasts; type: cell-based; settings: 100nM and 500nM
Description: The cells were then blocked in blocking buffer (5% BSA (Jackson Immuno Research Laboratories Inc., USA) in PBST) for 1 hour at RT. The primary antibody ([…] 1:500, Sigma, USA) diluted in 1% BSA in PBST was then added and incubated at 4°C overnight. Then, the cells were washed with 1X PBS thrice. Secondary antibody (Anti-Rabbit IgG (H+L) F (ab’) 2, 1:500, Sigma, USA) diluted in 1% BSA in PBST was added and incubated at RT for 2 hours. Three time washes with 1X PBS were performed. Then, 1mL of DAPI (Thermo Fisher Scientific, USA) in PBS (0.5μl of DAPI in 10 ml PBS) was added to the cells and incubated for 10 min at RT. Finally, 3 time washes with 1X PBS were performed and slides were mounted using Mounting Medium (Thermo Fisher Scientific, USA).

DDR2 = DDR2 (Homo sapiens, UniProt Q16832); assay: Kinase activity screening (SelectScreen), DDR2; type: biochemical
Chain of DDR2 (Q16832 22-855): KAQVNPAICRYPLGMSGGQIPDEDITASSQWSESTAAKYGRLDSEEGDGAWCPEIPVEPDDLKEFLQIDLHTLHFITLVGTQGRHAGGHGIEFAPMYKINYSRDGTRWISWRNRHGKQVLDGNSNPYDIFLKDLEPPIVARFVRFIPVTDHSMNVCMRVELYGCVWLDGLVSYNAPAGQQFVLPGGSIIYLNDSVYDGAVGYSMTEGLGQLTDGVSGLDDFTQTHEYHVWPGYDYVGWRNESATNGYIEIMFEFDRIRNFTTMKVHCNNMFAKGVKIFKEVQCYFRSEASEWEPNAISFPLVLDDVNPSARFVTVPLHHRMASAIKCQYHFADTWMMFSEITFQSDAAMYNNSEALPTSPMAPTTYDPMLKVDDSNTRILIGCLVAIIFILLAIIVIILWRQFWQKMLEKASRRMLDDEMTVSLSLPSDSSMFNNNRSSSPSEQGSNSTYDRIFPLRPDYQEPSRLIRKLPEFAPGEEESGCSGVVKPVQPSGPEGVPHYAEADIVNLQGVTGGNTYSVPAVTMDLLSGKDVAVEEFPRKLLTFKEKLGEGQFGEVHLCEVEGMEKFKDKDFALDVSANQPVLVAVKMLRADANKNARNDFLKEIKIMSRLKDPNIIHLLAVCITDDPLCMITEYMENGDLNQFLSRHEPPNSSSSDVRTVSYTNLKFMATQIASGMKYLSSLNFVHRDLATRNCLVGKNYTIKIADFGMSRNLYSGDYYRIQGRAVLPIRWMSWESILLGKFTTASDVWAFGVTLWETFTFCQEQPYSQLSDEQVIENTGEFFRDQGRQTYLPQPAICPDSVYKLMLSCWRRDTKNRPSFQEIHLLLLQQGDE

MUSK = MUSK (Homo sapiens, UniProt O15146); assay: Kinase activity screening (SelectScreen), MUSK; type: biochemical; settings: 10-point titration
various kinases [4] = target: various kinases (Homo sapiens, UniProt Q8TF76); assay: Adapta Universal Kinase Assay, panel of 486 biochemical kinase assays; settings: GSG2 (Haspin)
Chain of various kinases (Homo sapiens, UniProt Q8TF76) (Q8TF76 whole entry): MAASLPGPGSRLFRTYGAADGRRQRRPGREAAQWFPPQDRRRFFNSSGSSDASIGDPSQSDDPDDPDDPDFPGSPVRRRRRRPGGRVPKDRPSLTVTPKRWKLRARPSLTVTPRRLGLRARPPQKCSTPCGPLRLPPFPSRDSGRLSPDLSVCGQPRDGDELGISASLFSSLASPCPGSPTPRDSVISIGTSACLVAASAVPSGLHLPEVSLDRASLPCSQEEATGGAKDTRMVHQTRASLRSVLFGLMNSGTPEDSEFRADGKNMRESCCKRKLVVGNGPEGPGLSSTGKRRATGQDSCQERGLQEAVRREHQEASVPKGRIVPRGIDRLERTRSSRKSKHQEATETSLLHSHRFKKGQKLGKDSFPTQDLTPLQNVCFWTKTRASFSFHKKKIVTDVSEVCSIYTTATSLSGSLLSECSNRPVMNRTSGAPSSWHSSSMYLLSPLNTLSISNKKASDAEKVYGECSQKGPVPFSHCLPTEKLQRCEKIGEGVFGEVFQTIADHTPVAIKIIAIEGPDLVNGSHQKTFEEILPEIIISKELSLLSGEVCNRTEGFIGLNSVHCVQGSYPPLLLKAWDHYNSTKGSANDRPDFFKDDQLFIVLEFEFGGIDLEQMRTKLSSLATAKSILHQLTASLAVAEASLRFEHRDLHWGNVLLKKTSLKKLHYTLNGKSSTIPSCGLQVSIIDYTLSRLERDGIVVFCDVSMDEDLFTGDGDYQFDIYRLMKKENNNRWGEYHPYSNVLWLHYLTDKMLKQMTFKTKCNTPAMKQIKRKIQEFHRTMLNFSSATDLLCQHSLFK

various kinases [5] = target: various kinases (Homo sapiens, UniProt P42336, E542K); assay: as above; settings: PIK3CA E542K/PIK3R1 (p110 alpha E542K/p85 alpha)
Chain of various kinases (Homo sapiens, UniProt P42336, E542K) (P42336 whole entry E542K): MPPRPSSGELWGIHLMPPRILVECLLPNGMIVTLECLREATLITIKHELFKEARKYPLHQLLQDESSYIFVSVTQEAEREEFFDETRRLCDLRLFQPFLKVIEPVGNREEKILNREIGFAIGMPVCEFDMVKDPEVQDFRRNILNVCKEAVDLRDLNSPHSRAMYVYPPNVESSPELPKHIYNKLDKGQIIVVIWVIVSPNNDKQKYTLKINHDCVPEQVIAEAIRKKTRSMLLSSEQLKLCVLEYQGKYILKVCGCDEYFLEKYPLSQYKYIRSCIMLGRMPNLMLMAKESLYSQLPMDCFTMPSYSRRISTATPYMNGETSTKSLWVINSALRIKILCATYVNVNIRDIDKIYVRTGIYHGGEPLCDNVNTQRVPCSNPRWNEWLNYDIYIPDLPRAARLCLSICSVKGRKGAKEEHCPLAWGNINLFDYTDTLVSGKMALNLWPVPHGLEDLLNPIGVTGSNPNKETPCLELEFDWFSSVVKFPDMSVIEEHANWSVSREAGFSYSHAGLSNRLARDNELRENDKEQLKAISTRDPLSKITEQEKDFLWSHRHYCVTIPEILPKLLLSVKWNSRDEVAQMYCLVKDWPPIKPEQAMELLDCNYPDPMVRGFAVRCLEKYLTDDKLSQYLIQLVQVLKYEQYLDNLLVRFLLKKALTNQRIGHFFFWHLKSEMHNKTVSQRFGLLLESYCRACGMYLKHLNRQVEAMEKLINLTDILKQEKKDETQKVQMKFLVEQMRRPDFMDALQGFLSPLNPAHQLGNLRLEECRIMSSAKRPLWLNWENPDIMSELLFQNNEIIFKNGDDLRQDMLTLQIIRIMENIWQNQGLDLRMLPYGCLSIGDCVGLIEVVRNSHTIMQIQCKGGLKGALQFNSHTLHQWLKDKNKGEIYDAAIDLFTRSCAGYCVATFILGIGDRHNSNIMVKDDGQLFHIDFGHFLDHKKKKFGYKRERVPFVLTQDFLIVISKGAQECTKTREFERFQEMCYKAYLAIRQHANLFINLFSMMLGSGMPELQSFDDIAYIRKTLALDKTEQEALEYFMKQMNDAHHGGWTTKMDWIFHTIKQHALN

[6] = test system: PLK4 mRNA expression in MON rhabdoid cells; assay: qRT-PCR for PLK4 transcript in treated MON cells; type: cell-based, human; settings: 10, 50, 100 and 500nM for 24, 48 and 72 hours
Description: The expression of PLK4 (Hs00179514_m1) in each cell line was verified by TaqMan GE assays (Thermo Fisher Scientific, USA) using the housekeeping gene GAPDH (Hs02758991_g1) as reference. Total RNA (2μg) was used to make cDNA using the Applied Biosystems High Capacity RNA-to-cDNA kit (Thermo Fisher Scientific). Reactions were performed in triplicate with adequate positive and negative controls. The normalized expression levels were calculated by the ΔΔCt method using the housekeeping gene and a pool of all samples as calibrator.

[7] = Brain to plasma ratio (B:P), LC-MS/MS; type: in vivo, male CD-1 mice; settings: male, CD-1, mouse, po, 7.5 mg/kg, 4 hours post-dose
Description: Male CD-1 mice weighing between 20 and 40 grams were fitted with jugular vein cannulas as appropriate and fasted overnight until 4 hours post-dose. Double route of administration (oral and IV) were tested, with a single dose concentration of 7.5mg/kg. Plasma and brain were sampled at 6 time-points, starting at 30 minutes (n=3 animals/time-point). Brain was extracted at the same plasma sampling time-point from each animal. Both plasma and brain samples were deproteinated. Brain samples were weighted, homogenized and CFI-400945 was extracted. […] The dosing solution was normalized in a matched matrix (mouse plasma) and analyzed in triplicate in the same analytical batch as the incurred samples (Absorption Systems - Exton, PA).

[8] = set-up: method as in PMID 28057846; settings: adults with advanced solid tumors; cited from earlier work
various kinases [9] = target: various kinases (Homo sapiens, UniProt P53778); assay: biochemical; type: biochemical; settings: MAPK12 (p38 gamma)
various kinases [10] = target: various kinases (Homo sapiens, UniProt P16234, D842V); assay: biochemical; type: biochemical; settings: PDGFRA D842V
various kinases [11] = target: various kinases (Homo sapiens, UniProt Q05397); assay: biochemical; type: biochemical; settings: kinase PTK2 (FAK); ZLYTE
Chain of various kinases (Homo sapiens, UniProt Q05397) (Q05397 whole entry): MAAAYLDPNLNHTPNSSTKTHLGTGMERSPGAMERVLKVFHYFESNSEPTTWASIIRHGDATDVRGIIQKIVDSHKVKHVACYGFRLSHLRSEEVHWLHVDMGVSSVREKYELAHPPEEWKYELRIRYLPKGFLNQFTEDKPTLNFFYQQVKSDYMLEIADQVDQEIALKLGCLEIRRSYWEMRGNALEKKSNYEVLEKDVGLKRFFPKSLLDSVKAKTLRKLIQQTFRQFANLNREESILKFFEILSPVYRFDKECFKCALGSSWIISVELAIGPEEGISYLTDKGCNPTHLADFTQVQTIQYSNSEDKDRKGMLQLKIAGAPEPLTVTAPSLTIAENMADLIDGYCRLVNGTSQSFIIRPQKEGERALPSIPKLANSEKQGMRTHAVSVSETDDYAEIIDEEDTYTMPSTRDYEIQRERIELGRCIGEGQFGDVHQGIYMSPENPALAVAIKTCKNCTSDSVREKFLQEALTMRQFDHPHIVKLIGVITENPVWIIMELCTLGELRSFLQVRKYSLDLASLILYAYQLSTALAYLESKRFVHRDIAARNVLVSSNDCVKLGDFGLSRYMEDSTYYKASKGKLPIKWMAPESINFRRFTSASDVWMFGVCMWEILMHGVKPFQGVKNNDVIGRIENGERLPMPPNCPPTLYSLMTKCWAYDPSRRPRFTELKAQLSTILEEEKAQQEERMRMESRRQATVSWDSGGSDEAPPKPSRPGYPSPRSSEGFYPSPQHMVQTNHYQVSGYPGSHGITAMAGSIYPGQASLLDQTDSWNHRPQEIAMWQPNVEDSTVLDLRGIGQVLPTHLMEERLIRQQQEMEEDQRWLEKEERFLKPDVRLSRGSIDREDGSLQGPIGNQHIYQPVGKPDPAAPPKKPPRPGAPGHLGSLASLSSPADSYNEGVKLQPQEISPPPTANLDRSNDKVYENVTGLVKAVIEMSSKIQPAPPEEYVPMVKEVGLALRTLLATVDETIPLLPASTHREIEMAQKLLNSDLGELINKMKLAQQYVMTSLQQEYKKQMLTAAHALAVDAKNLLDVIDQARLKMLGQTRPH

various kinases [12] = target: various kinases (Homo sapiens, UniProt P49674); assay: biochemical; type: biochemical; settings: CSNK1E (CK1 epsilon)
Chain of various kinases (Homo sapiens, UniProt P49674) (P49674 whole entry): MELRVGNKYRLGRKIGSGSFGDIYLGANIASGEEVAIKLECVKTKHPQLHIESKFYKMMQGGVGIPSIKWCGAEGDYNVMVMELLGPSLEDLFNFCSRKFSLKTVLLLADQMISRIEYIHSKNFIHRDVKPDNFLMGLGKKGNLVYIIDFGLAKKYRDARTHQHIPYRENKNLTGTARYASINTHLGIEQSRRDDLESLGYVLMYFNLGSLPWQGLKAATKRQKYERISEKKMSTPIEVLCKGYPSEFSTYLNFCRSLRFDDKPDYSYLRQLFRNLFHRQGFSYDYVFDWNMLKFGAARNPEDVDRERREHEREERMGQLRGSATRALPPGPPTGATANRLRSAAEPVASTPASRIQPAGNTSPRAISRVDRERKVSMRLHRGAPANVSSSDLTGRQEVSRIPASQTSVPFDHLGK

various kinases [13] = target: various kinases (Homo sapiens, UniProt Q96L34); assay: biochemical; type: biochemical; settings: MARK4
Chain of various kinases (Homo sapiens, UniProt Q96L34) (Q96L34 whole entry): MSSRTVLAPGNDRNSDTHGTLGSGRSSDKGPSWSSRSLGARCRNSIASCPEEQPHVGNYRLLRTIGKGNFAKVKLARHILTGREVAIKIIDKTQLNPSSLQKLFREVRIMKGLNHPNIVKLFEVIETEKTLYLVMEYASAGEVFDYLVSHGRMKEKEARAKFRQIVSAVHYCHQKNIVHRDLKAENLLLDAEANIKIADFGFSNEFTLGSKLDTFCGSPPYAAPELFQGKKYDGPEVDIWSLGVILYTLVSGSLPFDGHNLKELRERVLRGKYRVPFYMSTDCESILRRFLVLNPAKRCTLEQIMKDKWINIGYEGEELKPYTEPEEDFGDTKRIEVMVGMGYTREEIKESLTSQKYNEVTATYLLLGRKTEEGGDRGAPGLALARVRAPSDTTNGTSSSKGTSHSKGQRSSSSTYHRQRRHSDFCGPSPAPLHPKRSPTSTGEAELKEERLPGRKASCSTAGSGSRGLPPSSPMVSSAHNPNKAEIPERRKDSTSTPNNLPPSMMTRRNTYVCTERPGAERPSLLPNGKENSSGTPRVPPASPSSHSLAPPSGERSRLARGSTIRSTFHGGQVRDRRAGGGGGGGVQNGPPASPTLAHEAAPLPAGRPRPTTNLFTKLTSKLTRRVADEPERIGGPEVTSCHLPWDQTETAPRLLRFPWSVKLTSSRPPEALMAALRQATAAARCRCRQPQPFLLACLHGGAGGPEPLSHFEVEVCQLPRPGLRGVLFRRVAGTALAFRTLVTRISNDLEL

For COc1ccc2c(c1)[C@]1(C[C@H]1c1ccc3c(/C=C/c4ccc(CN5C[C@@H](C)O[C@@H](C)C5)cc4)n[nH]c3c1)C(=O)N2 [CFI-400945], the “polyploidy (cell cycle analysis)” value [1] was “No effect”, the “FC, delay in reaching confluency” value (DAOY MB cells) was 1.70 and the clonogenic recovery (RT and MB cell lines) was “none of the cell lines recovered their ability to generate colonies”. For the same compound, the “senescent cells (beta galactosidase)” value [2] was “significant increase”, the “paradoxical effect on centriole number” value [3] was “not observed” and the IC50 (DDR2; 10-point titration) was 315 nM. For the same compound, the “% Inhibition” value (DDR2; DDR2, LanthaScreen Binding) was 9% and 18%, the IC50 (MUSK) was 48.7 nM and the “% Inhibition” value (various kinases [4]) was -7% and 3%. The “% Inhibition” value (various kinases [5]) was 6% and 9%, the “PLK4 expression (qPCR) vs control” value [6] was “time dependent decrease” and the Kp at 4 h ([7]; brain / plasma, fasted male CD-1 mice, triplicates, read-out: Average Raw B:P Ratio) was ~0.08. The concentration at 4 h ([7]; plasma, plasma density assumed 1 g/mL, individual mice #355, 356, 357, read-out: Plasma Conc.) was 498 ng/g, the “tolerability, preliminary phase I results” value [8] was “well tolerated at doses up to 72 mg” and the “% Inhibition” value (various kinases [9]) was -3% and -2%. For the same compound, the “% Inhibition” value (various kinases [10]) was 4% and 10%, the “% Inhibition Average” value (various kinases [11]) was 4% and the “% Inhibition Duplicate #1” value (various kinases [11]) was 5%. For the same compound, the “% Inhibition Duplicate #2” value (various kinases [11]) was 3%, the “% Inhibition” value (various kinases [12]) was 7% and 6% and the “% Inhibition” value (various kinases [13]) was 8% and 3%.
